According to publication PMC11882969 (Nature Communications, 2025):
Values joined by “and” are separate entries in the source; they are usually repeats but may differ in a detail not shown here. Equal values may be shown once. Read-outs that look alike come from different tables or passages of the source.

Tests used:
[1] = target: T1, CB1 (rCB1) (Rattus norvegicus, UniProt P20272); experiment: Radioligand competition binding, [3H]-CP-55,940, rat brain membranes
[2] = target: hCB2 (Homo sapiens, UniProt P34972); experiment: Tango β-arrestin-2 recruitment, HTLA cells, CB2R; type: cell-based; parameters: expressed in transfected cells; host or cells: HEK293 cells stably expressing human CB2R (Laboratory of Ken Mackie); conditions: hCB2
Description: The Tango β-arrestin-2 recruitment assays were performed as described[83]. In brief, HTLA cells (a gift from the laboratory of R. Axel) were transiently transfected with human CB1R or CB2R Tango DNA construct overnight in DMEM supplemented with 10 % FBS, 100 µg ml−1 streptomycin and 100 U ml−1 penicillin. The transfected cells were then plated into poly-L-lysine-coated 384-well white clear-bottom cell culture plates in DMEM containing 1% dialysed FBS at a density of 10,000–15,000 cells per well. After incubation for 6 h, the plates were added with drug solutions prepared in DMEM containing 1% dialysed FBS for overnight incubation. On the day of assay, medium and drug solutions were removed and 20 µl per well of BrightGlo reagent (Promega) was added. The plates were further incubated for 20 min at room temperature and counted using the Wallac TriLux Microbeta counter (PerkinElmer). The results were analysed using GraphPad Prism 9. Each experiment was performed in triplicate and functional IC50 values were determined from the mean of three independent experiments.

[3] = target: T1, CB1 (rCB1); experiment: Single-point radioligand displacement screen; type: binding; conditions: 10 µM, 1 µM or 300 nM by cell colour (not visible)
[4] = target: hCB1 (Homo sapiens, UniProt P21554); experiment: bioSensAll ebBRET signaling profiling, hCB1; type: cell-based; parameters: host or cells: HEK293SL cells, transient PEI transfection; conditions: for Gi1 hCB1 response: Gi1 biosensor; for Gi1 hCB1 / GoB hCB1: single replicate values, FigS6a; for Emax [95% CI]: normalized to CP-55,940; for EC50: read-out: EC50 [95% CI]
Sequence of hCB1 (P21554 whole entry): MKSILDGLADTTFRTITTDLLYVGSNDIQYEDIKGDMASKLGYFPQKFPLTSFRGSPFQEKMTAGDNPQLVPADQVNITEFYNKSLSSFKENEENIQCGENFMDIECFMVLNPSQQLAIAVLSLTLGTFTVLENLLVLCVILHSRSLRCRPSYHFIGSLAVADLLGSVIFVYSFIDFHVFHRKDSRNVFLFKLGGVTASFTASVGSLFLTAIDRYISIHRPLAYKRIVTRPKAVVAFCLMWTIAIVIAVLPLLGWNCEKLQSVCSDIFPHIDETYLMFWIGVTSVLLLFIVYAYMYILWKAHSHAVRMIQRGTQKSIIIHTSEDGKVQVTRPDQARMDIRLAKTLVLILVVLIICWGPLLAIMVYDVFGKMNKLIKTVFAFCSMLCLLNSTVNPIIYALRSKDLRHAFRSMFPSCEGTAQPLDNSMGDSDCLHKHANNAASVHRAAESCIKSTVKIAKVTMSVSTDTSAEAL

T1 sequence (P20272 whole entry): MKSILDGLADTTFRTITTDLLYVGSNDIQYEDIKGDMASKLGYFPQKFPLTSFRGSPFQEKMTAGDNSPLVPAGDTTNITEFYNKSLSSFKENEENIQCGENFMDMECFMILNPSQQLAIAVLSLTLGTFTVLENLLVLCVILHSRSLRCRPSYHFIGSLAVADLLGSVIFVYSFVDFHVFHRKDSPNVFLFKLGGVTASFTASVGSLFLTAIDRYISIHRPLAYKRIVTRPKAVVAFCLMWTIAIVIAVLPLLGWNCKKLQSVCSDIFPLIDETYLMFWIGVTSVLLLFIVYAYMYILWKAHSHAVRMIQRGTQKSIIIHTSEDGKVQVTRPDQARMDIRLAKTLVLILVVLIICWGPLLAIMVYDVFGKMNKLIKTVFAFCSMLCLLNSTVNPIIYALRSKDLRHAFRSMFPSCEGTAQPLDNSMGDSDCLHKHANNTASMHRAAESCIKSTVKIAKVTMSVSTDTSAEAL
Sequence of hCB2 (P34972 whole entry): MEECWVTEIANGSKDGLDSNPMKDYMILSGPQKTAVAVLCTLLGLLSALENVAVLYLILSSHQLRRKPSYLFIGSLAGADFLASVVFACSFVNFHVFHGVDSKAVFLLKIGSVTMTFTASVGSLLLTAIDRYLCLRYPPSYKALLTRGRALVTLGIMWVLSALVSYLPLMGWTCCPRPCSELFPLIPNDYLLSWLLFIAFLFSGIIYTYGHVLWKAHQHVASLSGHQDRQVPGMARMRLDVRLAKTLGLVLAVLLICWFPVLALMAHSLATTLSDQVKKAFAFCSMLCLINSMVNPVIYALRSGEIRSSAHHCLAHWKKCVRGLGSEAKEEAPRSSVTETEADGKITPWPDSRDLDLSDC

COC(=O)[C@@H]1[C@@H]2CCC[C@@H]2CN1C(=O)c1cc(C)n(-c2cccc(Cl)c2)n1 (racemic) [‘10010]
pKi [95% CI] ([1]; rCB1): 5.9 [5.8 – 6.0]
Ki ([1]; read-out: Ki [95% CI], rCB1, [3H]-CP-55,940): 1200 nM
Tango ß-arrestin recruitment Emax [2]: 18% [17 – 19]
Tango ß-arrestin recruitment pEC50 [2]: 6.3 [6.2 – 6.3]
EC50 ([2]; read-out: Tango ß-arrestin recruitment EC50): 556 nM
% 1H-CP-55,940 displacement (mean) from single point screen [3]: 33.86%
Gi1 hCB1 response ([4]; Log [Compound] (M) -4.22186): 123.556
Gi1 hCB1 response ([4]; Log [Compound] (M) -4.63927): 104.286
Gi1 hCB1 response ([4]; Log [Compound] (M) -5.05788): 90.0738
Gi1 hCB1 response ([4]; Log [Compound] (M) -5.47381): 84.2546
Gi1 hCB1 response ([4]; Log [Compound] (M) -5.89285): 64.3799
Gi1 hCB1 response ([4]; Log [Compound] (M) -6.31878): 42.6475
Gi1 hCB1 response ([4]; Log [Compound] (M) -6.72585): 30.3601
Gi1 hCB1 response ([4]; Log [Compound] (M) -7.14267): 11.5597
Gi1 hCB1 response ([4]; Log [Compound] (M) -7.55284): 0.9285
Gi1 hCB1 response ([4]; Log [Compound] (M) -8): 10.9106
Gi1 hCB1 response ([4]; Log [Compound] (M) -8.22186): -8.695
Gi1 hCB1 response ([4]; Log [Compound] (M) -8.39794): 0.6152
Gi1 hCB1 response ([4]; Log [Compound] (M) -8.68787): -2.362
Gi1 hCB1 response ([4]; Log [Compound] (M) -9.61989): -10.5755
Gi1 hCB1 response ([4]; Log [Compound] (M) -10.0969): -9.255
Gi1 hCB1 response ([4]; Log [Compound] (M) -10.5529): -7.5988
Gi1 hCB1 response ([4]; Log [Compound] (M) -11.0177): -15.9247
Gi1 hCB1 response ([4]; Log [Compound] (M) -11.4949): -7.532
Gi1 hCB1 response ([4]; Log [Compound] (M) -11.9208): -15.2309
Gi1 hCB1 response ([4]; Log [Compound] (M) -12.3979): -21.4305
Gi1 hCB1 response ([4]; Log [Compound] (M) -12.8861): 1.8014
Gi1 hCB1 response ([4]; Log [Compound] (M) -13, individual replicate values): -0.8396 and -0.9068
Gi1 hCB1 ([4]; Log [Compound] (M) -4.22186): 75.9694
GoB hCB1 ([4]; Log [Compound] (M) -4.22186): 69.5491
Gi1 hCB1 ([4]; Log [Compound] (M) -4.63927): 67.922
GoB hCB1 ([4]; Log [Compound] (M) -4.63927): 64.6397
Gi1 hCB1 ([4]; Log [Compound] (M) -5.05788): 66.8428
GoB hCB1 ([4]; Log [Compound] (M) -5.05788): 63.4708
Gi1 hCB1 ([4]; Log [Compound] (M) -5.47381): 60.337
GoB hCB1 ([4]; Log [Compound] (M) -5.47381): 61.9062
Gi1 hCB1 ([4]; Log [Compound] (M) -5.89285): 45.2596
GoB hCB1 ([4]; Log [Compound] (M) -5.89285): 36.262
Gi1 hCB1 ([4]; Log [Compound] (M) -6.31878): 29.1955
GoB hCB1 ([4]; Log [Compound] (M) -6.31878): 27.8098
Gi1 hCB1 ([4]; Log [Compound] (M) -6.72585): 16.0606
GoB hCB1 ([4]; Log [Compound] (M) -6.72585): 11.4989
Gi1 hCB1 ([4]; Log [Compound] (M) -7.14267): 6.117
GoB hCB1 ([4]; Log [Compound] (M) -7.14267): 3.514
Gi1 hCB1 ([4]; Log [Compound] (M) -7.55284): 3.804
GoB hCB1 ([4]; Log [Compound] (M) -7.55284): 2.9568
Gi1 hCB1 ([4]; Log [Compound] (M) -8): 3.373
GoB hCB1 ([4]; Log [Compound] (M) -8): 0.9427
Gi1 hCB1 ([4]; Log [Compound] (M) -8.22186): 2.679
GoB hCB1 ([4]; Log [Compound] (M) -8.22186): -4.812
Gi1 hCB1 ([4]; Log [Compound] (M) -8.39794): 2.664
GoB hCB1 ([4]; Log [Compound] (M) -8.39794): -1.197
Gi1 hCB1 ([4]; Log [Compound] (M) -8.68787): 1.0911
GoB hCB1 ([4]; Log [Compound] (M) -8.68787): -4.812
Gi1 hCB1 ([4]; Log [Compound] (M) -9.15521): 1.8
GoB hCB1 ([4]; Log [Compound] (M) -9.15521): -5.028
Gi1 hCB1 ([4]; Log [Compound] (M) -9.61989): 0.8444
GoB hCB1 ([4]; Log [Compound] (M) -9.61989): -4.38
Gi1 hCB1 ([4]; Log [Compound] (M) -10.0969): 1.662
GoB hCB1 ([4]; Log [Compound] (M) -10.0969): -4.057
Gi1 hCB1 ([4]; Log [Compound] (M) -10.5529): 2.648
GoB hCB1 ([4]; Log [Compound] (M) -10.5529): 1.212
Gi1 hCB1 ([4]; Log [Compound] (M) -11.0177): 0.9524
GoB hCB1 ([4]; Log [Compound] (M) -11.0177): -2.384
Gi1 hCB1 ([4]; Log [Compound] (M) -11.4949): 2.417
GoB hCB1 ([4]; Log [Compound] (M) -11.4949): -4.326
Gi1 hCB1 ([4]; Log [Compound] (M) -11.9208): 1.261
GoB hCB1 ([4]; Log [Compound] (M) -11.9208): -0.06441
Gi1 hCB1 ([4]; Log [Compound] (M) -12.3979): 1.908
GoB hCB1 ([4]; Log [Compound] (M) -12.3979): 2.4173
Gi1 hCB1 ([4]; Log [Compound] (M) -12.8861): 1.322
GoB hCB1 ([4]; Log [Compound] (M) -12.8861): 1.59
Gi1 hCB1 ([4]; Log [Compound] (M) -13): 2.232 and 1.538
GoB hCB1 ([4]; Log [Compound] (M) -13): 0.8707 and 1.266
pEC50 [95% CI] ([4]; hCB1 Gi1): 6.1 [6.0 – 6.1]
Emax [95% CI] ([4]; hCB1 Gi1): 74 [70 – 74]
pEC50 [95% CI] ([4]; hCB1 GoB): 6.1 [6.0 – 6.2]
Emax [95% CI] ([4]; hCB1 GoB): 71 [67 – 75]
pEC50 [95% CI] ([4]; hCB1 Gz): 5.9 [5.4 – 6.3]
Emax [95% CI] ([4]; hCB1 Gz): 144 [113 –175]
EC50 ([4]; hCB1 Gi1): 814 nM
EC50 ([4]; hCB1 GoB): 801 nM
EC50 ([4]; hCB1 Gz): 1400 nM
